The target in data set [1] is Rho-associated protein kinase 2 (Homo sapiens, UniProt O75116). Nature of the data set: Inhibition of ROCK2.
The nature of data set [2]: Inhibition of PKA.
Data set [3] concerns the target Rho-associated protein kinase 1 (Homo sapiens, UniProt Q13464). Put plainly: Inhibition of ROCK1.
The next data set concerns the target CYP3A4 (Homo sapiens, UniProt P08684). Put plainly: Inhibition of CYP3A4 at 10 uM. Type of data set: ADME.
The next data set deals with CYP2D6 (Homo sapiens, UniProt P10635). Put plainly: Inhibition of CYP2D6 at 10 uM. Type of data set: ADME.
Chain of CYP2D6 (P10635 whole entry): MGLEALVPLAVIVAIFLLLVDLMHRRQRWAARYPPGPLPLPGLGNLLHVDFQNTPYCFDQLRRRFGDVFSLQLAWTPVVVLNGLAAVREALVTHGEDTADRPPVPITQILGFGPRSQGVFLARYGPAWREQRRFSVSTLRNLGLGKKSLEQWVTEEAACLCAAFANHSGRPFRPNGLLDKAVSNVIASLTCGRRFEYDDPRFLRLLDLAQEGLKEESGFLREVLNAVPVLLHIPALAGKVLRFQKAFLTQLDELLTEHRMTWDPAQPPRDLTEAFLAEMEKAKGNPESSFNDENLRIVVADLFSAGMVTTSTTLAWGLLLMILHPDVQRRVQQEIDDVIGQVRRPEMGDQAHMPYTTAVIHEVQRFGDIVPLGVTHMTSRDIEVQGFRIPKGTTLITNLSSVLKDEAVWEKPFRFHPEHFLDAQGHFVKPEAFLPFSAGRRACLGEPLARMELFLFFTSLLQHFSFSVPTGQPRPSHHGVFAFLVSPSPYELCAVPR
Another data set has as its target CYP2C9 (Homo sapiens, UniProt P11712). Nature of the data set: Inhibition of CYP2C9 at 10 uM. Type of data set: ADME.
For a further data set, the target named is T1, CYP1A2 (Homo sapiens, UniProt P05177).
T1 sequence (P05177 whole entry): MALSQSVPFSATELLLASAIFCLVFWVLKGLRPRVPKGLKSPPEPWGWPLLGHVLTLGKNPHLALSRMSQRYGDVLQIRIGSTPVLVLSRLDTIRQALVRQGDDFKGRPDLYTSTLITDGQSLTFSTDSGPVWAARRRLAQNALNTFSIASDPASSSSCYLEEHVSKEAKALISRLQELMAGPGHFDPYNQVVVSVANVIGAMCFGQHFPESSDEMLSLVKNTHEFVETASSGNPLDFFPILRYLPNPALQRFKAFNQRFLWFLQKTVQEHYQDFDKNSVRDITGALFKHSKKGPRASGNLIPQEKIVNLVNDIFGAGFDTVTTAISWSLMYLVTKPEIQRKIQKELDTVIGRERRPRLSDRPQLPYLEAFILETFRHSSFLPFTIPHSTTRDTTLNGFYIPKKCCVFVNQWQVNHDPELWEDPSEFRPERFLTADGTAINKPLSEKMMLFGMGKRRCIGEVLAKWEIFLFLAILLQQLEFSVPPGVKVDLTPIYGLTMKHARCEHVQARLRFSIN
Nature of the data set: Inhibition of CYP1A2 at 10 uM. Type of data set: ADME.

Data set [4] is described as follows: Half life in human liver microsomes. Type of data set: ADME, Microsome. Background: Microsomes from liver hold many membrane-bound enzymes, among them those of drug oxidation.
Data set [5] is described as follows: Inhibition of myosin light chain bisphosphorylation by cell-based assay.

Molecules are shown by their SMILES.

Chain of CYP2C9 (P11712 whole entry): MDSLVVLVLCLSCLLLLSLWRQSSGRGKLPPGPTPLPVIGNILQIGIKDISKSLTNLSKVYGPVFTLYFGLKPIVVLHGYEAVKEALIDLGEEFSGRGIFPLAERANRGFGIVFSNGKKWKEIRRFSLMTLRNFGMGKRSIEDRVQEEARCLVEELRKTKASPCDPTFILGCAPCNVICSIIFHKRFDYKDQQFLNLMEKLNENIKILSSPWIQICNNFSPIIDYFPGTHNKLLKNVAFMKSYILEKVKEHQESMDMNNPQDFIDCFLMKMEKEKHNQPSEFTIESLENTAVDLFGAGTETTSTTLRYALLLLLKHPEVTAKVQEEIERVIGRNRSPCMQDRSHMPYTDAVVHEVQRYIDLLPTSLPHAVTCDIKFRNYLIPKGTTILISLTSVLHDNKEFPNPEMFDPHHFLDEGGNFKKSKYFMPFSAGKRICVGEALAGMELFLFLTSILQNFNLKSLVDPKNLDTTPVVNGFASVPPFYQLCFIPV
Chain of Rho-associated protein kinase 1 (Q13464 whole entry): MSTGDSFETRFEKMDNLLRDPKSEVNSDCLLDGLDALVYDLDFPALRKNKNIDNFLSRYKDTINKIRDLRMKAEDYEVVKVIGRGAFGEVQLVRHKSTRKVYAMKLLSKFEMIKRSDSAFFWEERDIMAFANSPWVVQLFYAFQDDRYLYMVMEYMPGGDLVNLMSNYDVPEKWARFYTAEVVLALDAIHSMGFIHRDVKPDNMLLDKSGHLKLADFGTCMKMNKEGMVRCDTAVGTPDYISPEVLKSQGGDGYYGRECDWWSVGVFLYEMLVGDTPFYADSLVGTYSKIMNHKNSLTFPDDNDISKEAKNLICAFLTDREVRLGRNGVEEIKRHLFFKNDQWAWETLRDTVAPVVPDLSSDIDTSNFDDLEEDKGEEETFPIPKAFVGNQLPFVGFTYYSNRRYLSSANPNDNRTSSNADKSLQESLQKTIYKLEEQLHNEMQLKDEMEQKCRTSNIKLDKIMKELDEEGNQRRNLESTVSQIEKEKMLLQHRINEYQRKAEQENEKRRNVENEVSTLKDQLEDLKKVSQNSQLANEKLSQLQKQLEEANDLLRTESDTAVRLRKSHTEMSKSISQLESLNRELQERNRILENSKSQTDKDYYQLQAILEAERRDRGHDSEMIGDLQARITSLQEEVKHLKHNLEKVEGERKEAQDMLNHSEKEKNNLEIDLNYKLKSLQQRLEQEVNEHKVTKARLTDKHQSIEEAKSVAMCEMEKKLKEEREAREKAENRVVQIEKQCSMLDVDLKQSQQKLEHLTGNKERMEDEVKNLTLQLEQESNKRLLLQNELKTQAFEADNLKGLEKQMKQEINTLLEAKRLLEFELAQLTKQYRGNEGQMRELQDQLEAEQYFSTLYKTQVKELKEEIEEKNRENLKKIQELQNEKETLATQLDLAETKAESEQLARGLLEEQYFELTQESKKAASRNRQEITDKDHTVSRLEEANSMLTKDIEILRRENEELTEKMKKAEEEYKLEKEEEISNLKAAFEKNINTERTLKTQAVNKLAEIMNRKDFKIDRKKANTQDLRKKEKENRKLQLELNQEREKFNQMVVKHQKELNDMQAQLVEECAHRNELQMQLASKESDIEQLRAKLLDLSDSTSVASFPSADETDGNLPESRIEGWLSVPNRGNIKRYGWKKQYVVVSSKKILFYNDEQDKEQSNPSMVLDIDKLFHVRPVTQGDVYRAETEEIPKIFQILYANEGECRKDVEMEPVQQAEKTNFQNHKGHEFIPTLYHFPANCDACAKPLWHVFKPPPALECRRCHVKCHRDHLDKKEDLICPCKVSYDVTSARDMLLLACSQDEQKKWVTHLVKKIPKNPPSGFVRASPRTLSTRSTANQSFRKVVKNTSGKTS
Chain of CYP3A4 (P08684 whole entry): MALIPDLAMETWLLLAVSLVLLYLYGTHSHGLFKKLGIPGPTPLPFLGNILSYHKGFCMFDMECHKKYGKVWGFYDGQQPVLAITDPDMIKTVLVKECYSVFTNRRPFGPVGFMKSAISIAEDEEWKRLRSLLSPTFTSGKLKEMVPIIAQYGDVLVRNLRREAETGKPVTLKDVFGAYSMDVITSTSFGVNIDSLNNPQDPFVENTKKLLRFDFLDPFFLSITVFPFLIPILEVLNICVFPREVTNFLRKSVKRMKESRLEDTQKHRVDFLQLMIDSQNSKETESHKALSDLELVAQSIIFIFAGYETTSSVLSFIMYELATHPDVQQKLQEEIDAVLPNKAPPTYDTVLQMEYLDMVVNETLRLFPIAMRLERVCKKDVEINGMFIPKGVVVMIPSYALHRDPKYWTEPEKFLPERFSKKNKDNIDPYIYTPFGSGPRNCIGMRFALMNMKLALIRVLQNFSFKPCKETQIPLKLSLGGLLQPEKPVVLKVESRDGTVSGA
Chain of Rho-associated protein kinase 2 (O75116 whole entry): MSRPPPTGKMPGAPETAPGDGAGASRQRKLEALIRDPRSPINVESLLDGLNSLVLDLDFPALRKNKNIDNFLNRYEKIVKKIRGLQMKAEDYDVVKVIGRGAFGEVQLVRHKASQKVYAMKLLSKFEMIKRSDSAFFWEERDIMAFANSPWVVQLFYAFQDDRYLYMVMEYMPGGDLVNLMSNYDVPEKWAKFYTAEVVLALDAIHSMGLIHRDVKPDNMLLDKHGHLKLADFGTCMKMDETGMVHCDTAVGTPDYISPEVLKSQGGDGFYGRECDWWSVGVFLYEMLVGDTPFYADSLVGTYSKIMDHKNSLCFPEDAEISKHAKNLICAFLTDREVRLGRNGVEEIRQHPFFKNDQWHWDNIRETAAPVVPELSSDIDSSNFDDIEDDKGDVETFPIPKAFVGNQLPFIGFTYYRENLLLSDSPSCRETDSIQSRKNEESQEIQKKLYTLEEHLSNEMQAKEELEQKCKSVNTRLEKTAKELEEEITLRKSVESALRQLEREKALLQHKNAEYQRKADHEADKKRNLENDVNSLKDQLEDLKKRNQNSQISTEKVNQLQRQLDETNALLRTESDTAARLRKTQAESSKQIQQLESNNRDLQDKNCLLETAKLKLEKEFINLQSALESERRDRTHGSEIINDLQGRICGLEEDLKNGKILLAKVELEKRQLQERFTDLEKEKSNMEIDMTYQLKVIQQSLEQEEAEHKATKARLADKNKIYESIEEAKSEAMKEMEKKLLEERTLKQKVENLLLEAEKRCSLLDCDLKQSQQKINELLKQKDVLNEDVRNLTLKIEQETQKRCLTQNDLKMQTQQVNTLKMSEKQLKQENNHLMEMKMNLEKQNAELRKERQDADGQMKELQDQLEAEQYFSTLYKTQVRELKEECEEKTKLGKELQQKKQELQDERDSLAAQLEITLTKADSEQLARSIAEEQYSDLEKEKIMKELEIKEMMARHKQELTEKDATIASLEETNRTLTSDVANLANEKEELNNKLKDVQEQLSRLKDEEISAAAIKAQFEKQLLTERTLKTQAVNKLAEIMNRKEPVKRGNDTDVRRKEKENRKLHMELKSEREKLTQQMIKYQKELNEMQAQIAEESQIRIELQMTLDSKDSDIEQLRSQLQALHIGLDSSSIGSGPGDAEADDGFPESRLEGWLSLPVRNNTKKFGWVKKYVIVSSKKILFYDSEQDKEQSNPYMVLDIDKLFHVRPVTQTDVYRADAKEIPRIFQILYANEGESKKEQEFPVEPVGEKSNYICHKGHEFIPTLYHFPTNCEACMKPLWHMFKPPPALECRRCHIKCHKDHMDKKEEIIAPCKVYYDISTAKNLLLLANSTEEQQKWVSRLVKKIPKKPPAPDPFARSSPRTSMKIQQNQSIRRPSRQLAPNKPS

As for `COc1cccc(CNC(=O)c2cc3ccc(-c4cn[nH]c4)cc3n2CCN(C)C)c1`, the half-maximal inhibitory concentration (IC50) – broadly, the point on the concentration scale where inhibition reaches its midpoint – was 0.31 µM in data set [1], over 20 µM in data set [2] and 0.71 µM in data set [3].
For `COc1cccc(CN(CCN2CCCC2)C(=O)c2cc3ccc(-c4cn[nH]c4)nc3[nH]2)c1`, the inhibition (as a rule, the change of the read-out against control, counted positive when it falls) at 10 µM on CYP3A4 is 43%; against CYP2D6, 52%; against CYP2C9, 26%; against CYP1A2, 12%. The concentration for half-maximal inhibition (IC50) in data set [1] is 0.018 µM; in data set [2] it was over 20 µM; in data set [3], 0.121 µM. In addition, in data set [4], the half-life (in general, how long it takes for the measured level to halve) stood at 21 min.
On to `COc1cccc(CN(C)C(=O)c2cn(CCN(C)C)c3cc(-c4cn[nH]c4)ccc23)c1`, for which the IC50 in data set [1] is 0.009 µM; in data set [2], over 20 µM; in [3], 0.11 µM.
On to `COc1cccc(CNC(=O)c2[nH]c3nc(-c4cn[nH]c4)ccc3c2CN2CCN(C)CC2)c1`, for which the inhibition at 10 µM was 34% at CYP3A4, 60% against CYP2D6, -26% on CYP2C9 and -15% against CYP1A2. Further, the 50% inhibitory concentration (IC50) was 0.008 µM in [1], 0.911 µM in [2] and 0.039 µM in [3]. The compound also had a half-life in data set [4] of 1 min.
For the compound `COc1cccc(CN(C)C(=O)c2c[nH]c3cc(-c4cn[nH]c4)ccc23)c1`, the inhibition at 10 µM on CYP3A4 amounted to 38%; on CYP2D6, 50%; on CYP2C9, 94%; against CYP1A2, 70%. The IC50 in [1] was found to be 0.002 µM; in [2] it was 4.3 µM; in [3], 0.019 µM. Also, the half-life in data set [4] stood at 13 min.
As to `COc1cccc(CNC(=O)c2cn(C)c3cc(-c4cn[nH]c4)ccc23)c1`, the inhibition at 10 µM at CYP3A4 is 87%; on CYP2D6 it was 53%; against CYP2C9, 93%; against CYP1A2, 23%. Moreover, the IC50 is under 0.001 µM in data set [1], 0.087 µM in [2], under 0.001 µM in [3] and 0.004 µM in data set [5]. In [4], this compound showed a half-life of 9 min.
In the case of `COc1cccc(CN(CCCN(C)C)C(=O)c2cc3ccc(-c4cn[nH]c4)cc3[nH]2)c1`, the IC50 amounted to 0.01 µM in data set [1], 1.6 µM in data set [2] and 0.046 µM in data set [3].
In the case of `COc1cccc(CNC(=O)c2cn(CCCO)c3cc(-c4cn[nH]c4)ccc23)c1`, the inhibition at 10 µM on CYP3A4 worked out at 63%; against CYP2D6, 32%; at CYP2C9, 87%; against CYP1A2, 71%. In addition, the IC50 in data set [1] is 0.001 µM; in data set [2], 0.9 µM; in [3] it was 0.003 µM. For the same compound, the half-life in data set [4] was determined as 21 min.
Take `COc1cccc(CNC(=O)c2[nH]c3cc(-c4cn[nH]c4)ccc3c2CN2CCN(C)CC2)c1`: the inhibition at 10 µM against CYP3A4 worked out at 75%; on CYP2D6 it was 86%; at CYP2C9, 75%; at CYP1A2 it was 62%. Also, the half-maximal inhibitory concentration (IC50) in data set [1] was under 0.001 µM; in [2] it was 1.3 µM; in data set [3], 0.006 µM; in data set [5], 0.04 µM. The half-life in data set [4] was determined as 1 min.
Consider `COc1cccc(CN(CCCN(C)C)C(=O)c2cn(C)c3cc(-c4cn[nH]c4)ccc23)c1`, for which the inhibition at 10 µM against CYP3A4 is 31%; against CYP2D6, 31%; at CYP2C9, 28%; against CYP1A2, 4%. Further, the IC50 in [1] came to 0.001 µM; in data set [2] it was 2.81 µM; in data set [3], 0.013 µM; in data set [5] it was 0.053 µM. For the same compound, the half-life in [4] is 14 min.
With `COc1cccc(CN(C)C(=O)c2cc3ccc(-c4cn[nH]c4)nc3[nH]2)c1`, the inhibition at 10 µM against CYP3A4 worked out at 27%; against CYP2D6, 52%; at CYP2C9, 83%; on CYP1A2, 32%. Besides, the IC50 was 0.004 µM in data set [1], 0.57 µM in [2], 0.027 µM in data set [3] and 0.025 µM in [5]. The same compound came in with a half-life in data set [4] of 24 min.
Turning to `COc1cccc(CN(C(=O)c2c[nH]c3nc(-c4cn[nH]c4)ccc23)C2CC2)c1`, the inhibition at 10 µM is 56% against CYP3A4, 25% on CYP2D6, 91% on CYP2C9 and -5% against CYP1A2. For the same compound, the half-inhibitory concentration (IC50) was 0.006 µM in [1], over 20 µM in [2] and 0.03 µM in data set [3]. This compound returned a half-life in data set [4] of 9 min.
Turning to `CCN(Cc1cccc(OC)c1)C(=O)c1c[nH]c2nc(-c3cn[nH]c3)ccc12`, the IC50 in data set [1] stood at 0.019 µM; in [2], 5 µM; in [3], 0.076 µM.
As for `COc1cccc(CN(CCN2CCCC2)C(=O)c2cc3ccc(-c4cn[nH]c4)cc3[nH]2)c1`, the inhibition at 10 µM is 59% against CYP3A4, 78% against CYP2D6, 65% against CYP2C9 and -2% against CYP1A2. Besides, the half-inhibitory concentration (IC50) in [1] was 0.011 µM; in [2], 1.64 µM; in data set [3], 0.062 µM; in data set [5], 0.206 µM. The half-life in data set [4] turned out to be 49 min.
For the compound `COc1cccc(CN(CC[N+]2(C)CCCC2)C(=O)c2cc3ccc(-c4cn[nH]c4)nc3n2C)c1`, the concentration for half-maximal inhibition (IC50) in data set [1] amounted to 1.9 µM; in data set [2] it was 3.7 µM; in data set [3], 6.6 µM.
Taken in the same sequence, the figures for `COc1cccc(CNC(=O)c2cc3ccc(-c4cn[nH]c4)cc3n2CCCO)c1` were 0.024 µM, 1.8 µM and 0.088 µM.
As to `COc1cccc(CNC(=O)c2cc3ccc(-c4cn[nH]c4)nc3n2CC2CC2)c1`, the IC50 in [1] was 0.15 µM; in [2], 5 µM; in data set [3], 0.28 µM.
`COc1cccc(CNC(=O)c2cn(C)c3nc(-c4cn[nH]c4)ccc23)c1`: the inhibition at 10 µM on CYP3A4 was 68%; on CYP2D6, 23%; against CYP2C9, 77%; against CYP1A2, -2%. For the same compound, the IC50 in [1] is under 0.001 µM; in data set [2], 0.72 µM; in [3], under 0.001 µM. Further, the half-life in data set [4] amounted to 13 min.
`COc1cccc(CNC(=O)c2c[nH]c3nc(-c4cn[nH]c4)ccc23)c1` had an IC50 in data set [2] of 8 µM.
As for `COc1cccc(CNC(=O)c2cc3ccc(-c4cn[nH]c4)nc3n2Cc2cccc(OC)c2)c1`, the IC50 in data set [1] was 4.4 µM; in data set [3] it was over 20 µM.
Take `COc1cccc(CN(CCN2CCCC2)C(=O)c2cc3ccc(-c4cn[nH]c4)nc3n2C)c1`: the IC50 in data set [1] was 0.22 µM; in [2], 2.2 µM; in data set [3], 1 µM.
Take `COc1cccc(CN(C)C(=O)c2cc3ccc(-c4cn[nH]c4)cc3n2C)c1`: the half-maximal inhibitory concentration (IC50) is 0.2 µM in [1], over 20 µM in data set [2] and 1.1 µM in [3].
Turning to `COc1cccc(CNC(=O)c2cn(-c3ccccc3)c3cc(-c4cn[nH]c4)ccc23)c1`, the inhibition at 10 µM stood at 93% against CYP3A4, 76% against CYP2D6, 96% against CYP2C9 and 36% against CYP1A2. Further, the IC50 in data set [1] was 0.005 µM; in [3], 0.021 µM. Moreover, in data set [4], the half-life is 10 min.
`COc1cccc(CNC(=O)c2[nH]c3cc(-c4cn[nH]c4)ccc3c2CN(C)C)c1`: the inhibition at 10 µM on CYP3A4 was determined as 19%; at CYP2D6 it was 48%; against CYP2C9, 27%; on CYP1A2, 18%. The IC50 in [1] was 0.009 µM; in data set [2], 1.5 µM; in [3], 0.034 µM. Besides, the half-life in data set [4] stood at 68 min.
On to `COc1cccc(CN(CCN(C)C)C(=O)c2cn(CCN3CCCC3)c3cc(-c4cn[nH]c4)ccc23)c1`, for which the figures for the concentration for half-maximal inhibition (IC50) in data set [1], in data set [2] and in data set [3] were 2.8 µM, over 20 µM and 8.9 µM, respectively.
As for `COc1cccc(CN(C)C(=O)c2cc3ccc(-c4cn[nH]c4)cc3n2CCN(C)C)c1`, the results for the IC50 in data set [1], in data set [2] and in data set [3] were 2.3 µM, over 20 µM and 6.9 µM, respectively.
As to `COc1cccc(CNC(=O)c2[nH]c3nc(-c4cn[nH]c4)ccc3c2CN2CCOCC2)c1`, the inhibition at 10 µM against CYP3A4 is 46%; against CYP2D6 it was 28%; at CYP2C9, 9%; at CYP1A2 it was 7%. The IC50 in data set [1] is 0.016 µM; in data set [2] it was 6.1 µM; in data set [3] it was 0.091 µM. In data set [4], this compound displayed a half-life of 4 min.
Take `COc1cccc(CN(CCCN2CCN(C)CC2)C(=O)c2c[nH]c3nc(-c4cn[nH]c4)ccc23)c1`: the half-inhibitory concentration (IC50) in data set [1] worked out at 0.062 µM; in data set [2] it was 3.7 µM; in [3], 0.26 µM.
As to `COc1cccc(CNC(=O)c2[nH]c3cc(-c4cn[nH]c4)ccc3c2CN2CCCNCC2)c1`, the inhibition at 10 µM on CYP3A4 came to 51%; against CYP2D6, 81%; at CYP2C9, 53%; against CYP1A2 it was 41%. Further, the results for the IC50 in [1], in data set [2] and in data set [3] were under 0.001 µM, 0.385 µM and 0.008 µM, respectively. The half-life in data set [4] turned out to be 50 min.
